Laboratory results taken from PubChem BioAssay (NCI).
Where “and” joins values, the source holds several entries; their conditions need not be identical. Equal entries are not always repeated.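 Grown in 96-well plates, cells were treated for 48 hours with each compound at five concentrations. Insufficient inhibition: endpoint recorded as highest concentration tested. GI50: concentration for 50% inhibition of growth. The concentration for full growth arrest is given as TGI.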

Legend:
Experiment in all cases: DTP human tumour cell line panel, 48 h
UO-31 renal = tested on: UO-31 renal
DU-145 prostate = tested on: DU-145 prostate
RXF 393 renal = tested on: RXF 393 renal
BT-549 breast = tested on: BT-549 breast
OVCAR-4 ovarian = tested on: OVCAR-4 ovarian
HL-60(TB) leukemia = tested on: HL-60(TB) leukemia
OVCAR-3 ovarian = tested on: OVCAR-3 ovarian
TK-10 renal = tested on: TK-10 renal
SK-MEL-2 melanoma = tested on: SK-MEL-2 melanoma
OVCAR-5 ovarian = tested on: OVCAR-5 ovarian

Structure (SMILES) | GI50 (UO-31 renal) | TGI (UO-31 renal) | GI50 (DU-145 prostate) | TGI (DU-145 prostate) [µM] | GI50 (RXF 393 renal) | TGI (RXF 393 renal) | GI50 (BT-549 breast) [µM] | TGI (BT-549 breast) | GI50 (OVCAR-4 ovarian) | TGI (OVCAR-4 ovarian) | GI50 (HL-60(TB) leukemia) | TGI (HL-60(TB) leukemia) | GI50 (OVCAR-3 ovarian) [µM] | TGI (OVCAR-3 ovarian) | GI50 (TK-10 renal) [µM] | TGI (TK-10 renal) | GI50 (SK-MEL-2 melanoma) | TGI (SK-MEL-2 melanoma) | GI50 (OVCAR-5 ovarian) | TGI (OVCAR-5 ovarian)
O=C1c2cccc(NCCN=Cc3cc([N+](=O)[O-])ccc3O)c2C(=O)c2c(NCCN=Cc3cc([N+](=O)[O-])ccc3O)cccc21 | 8.34 µM | > 100 µM | 3.94 µM | 58.1 | 7.01 µM | > 100 µM | 36.9 | > 100 µM | 2.06 µM | > 100 µM | 38.8 µM | > 100 µM | 4.79 | 72 µM | 28.5 | > 100 µM | 20.5 µM | 96.4 µM | 31.6 µM | > 100 µM
C#CC1(O)C(COP(=O)(O)OC(COCCCCCCCCCCCCCCCCCC)COP(=O)(O)OCC2OC(n3cc(F)c(=O)[nH]c3=O)CC2O)OC(n2ccc(N)nc2=O)C1O (stereo not given) | < 0.0376 µM and 0.115 µM | 1.15 µM and 4.26 µM | 0.274 µM and 0.0722 µM | > 100 | 0.306 µM and 2.46 µM | 17.3 µM and 22.5 µM | – | > 42.8 µM and 8.71 µM | 3.05 µM and 1.5 µM | 31.4 µM and 23.4 µM | 0.0952 µM and 0.21 µM | 17.9 µM and 11.7 µM | – | > 29.1 µM and 23.4 µM | – | 9.09 µM and 3.83 µM | < 0.049 µM and 0.432 µM | 1.88 µM and 3.48 µM | 1.04 µM and 2.99 µM | > 46.2 µM and 68.6 µM
Nc1nc(N)c2nc(CNc3ccc(C(=O)NC(CC(=O)O)C(=O)O)cc3)cnc2n1 (stereo not given) | 1.18 µM | > 35.9 µM | 0.682 µM | > 100 | > 72.4 µM | > 100 µM | 1.03 | > 100 µM | > 100 µM | > 100 µM | 0.756 µM | > 100 µM | 0.694 | > 100 µM | 1.71 | > 100 µM | 0.412 µM | > 100 µM | 16.3 µM | > 100 µM
Cc1ccc(C(CC(=O)c2ccccc2)C2C(=O)NC(=O)NC2=O)cc1 (stereo not given) | > 100 µM | > 100 µM | > 100 µM | > 100 | > 100 µM | > 100 µM | > 100 | > 100 µM | > 100 µM | > 100 µM | > 100 µM | > 100 µM | > 100 | > 100 µM | > 100 | > 100 µM | > 100 µM | > 100 µM | > 100 µM | > 100 µM
CCC1CN2C(=N1)c1ccccc1-c1cc(Cl)ccc12 (stereo not given) | 2.39 µM | 15.1 µM | 2.31 µM | 6.26 | 3.5 µM | 15 µM | 13.2 | 50.3 µM | 3.97 µM | 28.6 µM | 1.85 µM | 9.34 µM | 3.48 | 9.9 µM | 4.79 | 32.8 µM | 2.75 µM | 7.77 µM | 4.48 µM | 29.6 µM
O=c1ccn(C2CC(O)C(CO)O2)c(=O)[nH]1 (stereo not given) | > 5000 µM | > 5000 µM | > 5000 µM | > 5000 | > 5000 µM | > 5000 µM | > 5000 | > 5000 µM | > 5000 µM | > 5000 µM | > 5000 µM | > 5000 µM | > 5000 | > 5000 µM | > 5000 | > 5000 µM | > 5000 µM | > 5000 µM | > 5000 µM | > 5000 µM
CCOC(=O)c1c2c(n(Cc3ccc(Cl)cc3Cl)c1C)-c1nc[nH]c1C(=O)C2=O | 12.4 µM | 49.5 µM | 11.8 µM | 24.1 | 10.2 µM | 22.7 µM | 15.5 | 31.8 µM | 6.58 µM | 19.3 µM | 2.18 µM | 5.14 µM | 2.86 | 10.6 µM | 20.1 | 41.2 µM | 19.5 µM | 41.2 µM | – | –
COc1cccc(-n2nc(C)c3c(N/N=C(\C)c4ccncc4)ncnc32)c1 | 13.8 µM | > 25 µM | > 25 µM | > 25 | 8.15 µM | > 25 µM | > 21.9 | > 25 µM | > 25 µM | > 25 µM | > 25 µM | > 25 µM | > 25 | > 25 µM | 10.2 | > 25 µM | > 25 µM | > 25 µM | > 25 µM | > 25 µM
CCOC(=O)c1cc2c(n1Cc1cccc(OC)c1)-c1oncc1CCC2 | 4.48 µM | > 100 µM | 2.46 µM | > 32.5 | 1.07 µM | 6.89 µM | 1.61 | > 100 µM | 8.38 µM | > 100 µM | 1.19 µM | > 58.4 µM | 0.372 | 4.53 µM | 7 | > 100 µM | 0.535 µM | 14.9 µM | 6.31 µM | > 100 µM
O=C(Cn1c(=O)c(-c2ccccc2)nc2ccccc21)Nc1ccc(F)cc1 | > 100 µM | > 100 µM | 43.4 µM | > 100 | 35.5 µM | > 100 µM | 36.4 | > 100 µM | 47.3 µM | > 100 µM | 14.1 µM | 48 µM | > 100 | > 100 µM | 85 | > 100 µM | 60.6 µM | > 100 µM | > 100 µM | > 100 µM
c1cc2n(n1)CCN2 | – | 9890 µM | – | > 10000 | – | 9590 µM | – | > 10000 µM | – | > 9780 µM | – | 5150 µM | – | > 10000 µM | – | > 10000 µM | – | > 7500 µM | – | > 10000 µM
Cc1cc(O)c(C2=NN(c3ccc(S(N)(=O)=O)cc3)C(c3ccccc3Cl)C2)cc1Cl (stereo not given) | 2.66 µM | 16.2 µM | 2.01 µM | 3.85 | 3.09 µM | 8.22 µM | 2.16 | 4.74 µM | 2.73 µM | 8.48 µM | 3.44 µM | > 100 µM | 1.89 | 3.58 µM | 2.64 | 5.86 µM | 11.9 µM | 31 µM | 1.74 µM | 3.3 µM
